Mutagenic call data for nine compounds are collected here from PubChem BioAssay AID1259407 (Chemical Carcinogenesis Research Information System (CCRIS), 2018).

Active and inactive are the calls of the source. The rule behind the calls is not given here.

In the data set the test system is CCRIS mutagenicity, Ames/micronucleus/aberration tests. Description: CCRIS mutagenicity studies.
The mark [1] stands for this setting: Test System: AMES SALMONELLA TYPHIMURIUM, Strain/Indicator: TA98, Metabolic Activation: NONE, Method: PREINCUBATION
Where [2] appears, read: Test System: AMES SALMONELLA TYPHIMURIUM, Strain/Indicator: TA100, Metabolic Activation: NONE, Method: PREINCUBATION
[3] abbreviates: Test System: AMES SALMONELLA TYPHIMURIUM, Strain/Indicator: TA100, Metabolic Activation: NONE, Method: STANDARD PLATE.
Setting [4] is: Test System: AMES SALMONELLA TYPHIMURIUM, Strain/Indicator: TA98, Metabolic Activation: HAMSTER, LIVER, S-9, AROCLOR 1254 (10%), Method: PREINCUBATION
Setting [5] is: Test System: AMES SALMONELLA TYPHIMURIUM, Strain/Indicator: TA98, Metabolic Activation: RAT, LIVER, S-9, AROCLOR 1254 (10%), Method: PREINCUBATION
[6] abbreviates: Test System: AMES SALMONELLA TYPHIMURIUM, Strain/Indicator: TA100, Metabolic Activation: HAMSTER, LIVER, S-9, AROCLOR 1254 (10%), Method: PREINCUBATION
Where [7] appears, read: Test System: AMES SALMONELLA TYPHIMURIUM, Strain/Indicator: TA100, Metabolic Activation: RAT, LIVER, S-9, AROCLOR 1254 (10%), Method: PREINCUBATION
The mark [8] stands for this setting: Test System: AMES SALMONELLA TYPHIMURIUM, Strain/Indicator: TA1535, Metabolic Activation: HAMSTER, LIVER, S-9, AROCLOR 1254 (10%), Method: PREINCUBATION
The mark [9] stands for this setting: Test System: AMES SALMONELLA TYPHIMURIUM, Strain/Indicator: TA1535, Metabolic Activation: NONE, Method: PREINCUBATION
[10] abbreviates: Test System: AMES SALMONELLA TYPHIMURIUM, Strain/Indicator: TA1535, Metabolic Activation: RAT, LIVER, S-9, AROCLOR 1254 (10%), Method: PREINCUBATION
[11] abbreviates: Test System: AMES SALMONELLA TYPHIMURIUM, Strain/Indicator: TA1537, Metabolic Activation: HAMSTER, LIVER, S-9, AROCLOR 1254 (10%), Method: PREINCUBATION
Where [12] appears, read: Test System: AMES SALMONELLA TYPHIMURIUM, Strain/Indicator: TA1537, Metabolic Activation: NONE, Method: PREINCUBATION
Where [13] appears, read: Test System: AMES SALMONELLA TYPHIMURIUM, Strain/Indicator: TA1537, Metabolic Activation: RAT, LIVER, S-9, AROCLOR 1254 (10%), Method: PREINCUBATION

Turning to `CCCC[N+](=O)[O-]`, the mutagenic call under setting [1] is “inactive; negative”; the mutagenic call (Test System: AMES SALMONELLA TYPHIMURIUM, Strain/Indicator: TA98, Metabolic Activation: RAT, LIVER, S-9, AROCLOR, Method: PREINCUBATION) was “inactive; negative”; the mutagenic call (Test System: AMES SALMONELLA TYPHIMURIUM, Strain/Indicator: TA98, Metabolic Activation: RAT, LIVER, S-9, KANECHLOR 500, Method: PREINCUBATION) was “inactive; negative”; the mutagenic call under setting [2] was “inactive; negative”; the mutagenic call (Test System: AMES SALMONELLA TYPHIMURIUM, Strain/Indicator: TA100, Metabolic Activation: RAT, LIVER, S-9, AROCLOR, Method: PREINCUBATION) is “inactive; negative”; the mutagenic call (Test System: AMES SALMONELLA TYPHIMURIUM, Strain/Indicator: TA100, Metabolic Activation: RAT, LIVER, S-9, KANECHLOR 500, Method: PREINCUBATION) was “inactive; negative”. Further, the mutagenic call by setting is: (Test System: AMES SALMONELLA TYPHIMURIUM, Strain/Indicator: TA102, Metabolic Activation: NONE, Method: PREINCUBATION) “inactive; negative”; (Test System: AMES SALMONELLA TYPHIMURIUM, Strain/Indicator: TA102, Metabolic Activation: RAT, LIVER, S-9, AROCLOR, Method: PREINCUBATION) “inactive; negative”; (Test System: E. COLI, Strain/Indicator: WP2 UVRA (PKM101), Metabolic Activation: NONE, Method: PREINCUBATION) “inactive; negative”; (Test System: E. COLI, Strain/Indicator: WP2 UVRA (PKM101), Metabolic Activation: RAT, LIVER, S-9, KANECHLOR 500, Method: PREINCUBATION) “inactive; negative”; (Test System: UDS RAT HEPATOCYTES, Strain/Indicator: THY INCORP, Metabolic Activation: NONE) “inactive; negative”.

Regarding `O=BOO`, the mutagenic call reads like this: (Test System: AMES SALMONELLA TYPHIMURIUM, Strain/Indicator: TA102, Metabolic Activation: NONE, Method: STANDARD PLATE) “active; positive”; (Test System: E. COLI, Strain/Indicator: WP2 (PKM101), Metabolic Activation: NONE, Method: STANDARD PLATE) “active; positive”; (Test System: E. COLI, Strain/Indicator: WP2 UVRA (PKM101), Metabolic Activation: NONE, Method: STANDARD PLATE) “active; positive”.

As for `O=CN(O)c1ccc(Cl)c(Cl)c1`, the mutagenic call (Test System: AMES SALMONELLA TYPHIMURIUM, Strain/Indicator: TA97, Metabolic Activation: NONE, Method: STANDARD PLATE) was “inactive; negative”; the mutagenic call (Test System: AMES SALMONELLA TYPHIMURIUM, Strain/Indicator: TA97, Metabolic Activation: RAT, LIVER, S-9, AROCLOR 1254, Method: STANDARD PLATE) is “inactive; negative”; the mutagenic call (Test System: AMES SALMONELLA TYPHIMURIUM, Strain/Indicator: TA98, Metabolic Activation: NONE, Method: STANDARD PLATE) is “inactive; negative”; the mutagenic call (Test System: AMES SALMONELLA TYPHIMURIUM, Strain/Indicator: TA98, Metabolic Activation: RAT, LIVER, S-9, AROCLOR 1254, Method: STANDARD PLATE) was “inactive; negative”; the mutagenic call under setting [3] was “inactive; negative”; the mutagenic call (Test System: AMES SALMONELLA TYPHIMURIUM, Strain/Indicator: TA100, Metabolic Activation: RAT, LIVER, S-9, AROCLOR 1254, Method: STANDARD PLATE) is “inactive; negative”. The mutagenic call was “inactive; negative” (Test System: AMES SALMONELLA TYPHIMURIUM, Strain/Indicator: TA104, Metabolic Activation: NONE, Method: STANDARD PLATE) and “inactive; negative” (Test System: AMES SALMONELLA TYPHIMURIUM, Strain/Indicator: TA104, Metabolic Activation: RAT, LIVER, S-9, AROCLOR 1254, Method: STANDARD PLATE).

In the case of `OCCN1CC1`, for the setting “Test System: CHINESE HAMSTER V-79, Strain/Indicator: V-79/6-THIOGUANINE, Metabolic Activation: NONE, Method: FLASK ASSAY”, the mutagenic call is “active; positive”.

In the case of `C#CC(OC(=O)NC1CCCCC1)(c1ccccc1)c1ccccc1`, under setting [3], the mutagenic call is “active; positive”.

For the compound `CC(C)(C)N(CC(O)COc1cccc2c1CC(O)C(O)C2)N=O` (stereo not drawn), the mutagenic call is, setting by setting: (Test System: UDS HUMAN HEPATOCYTES, Strain/Indicator: THY INCORP, Metabolic Activation: NONE, Method: AUTORADIOGRAPHY) “active; positive”; (Test System: UDS RAT HEPATOCYTES, Strain/Indicator: THY INCORP, Metabolic Activation: NONE, Method: AUTORADIOGRAPHY) “active; positive”.

As to `CCC(=O)N(O)c1ccc2ccccc2c1`, the mutagenic call reads like this: under setting [1], “inactive; negative”; (Test System: AMES SALMONELLA TYPHIMURIUM, Strain/Indicator: TA98, Metabolic Activation: RAT, LIVER, CYTOSOL, Method: PREINCUBATION) “inactive; negative”; (Test System: AMES SALMONELLA TYPHIMURIUM, Strain/Indicator: TA98, Metabolic Activation: RAT, LIVER, MICROSOMES, Method: PREINCUBATION) “active; positive”.

As for `NCCCN`, the mutagenic call reads like this: under setting [4], “inactive; negative”; under setting [1], “inactive; negative”; under setting [5], “inactive; negative”; under setting [6], “inactive; negative”; under setting [2], “inactive; negative”; under setting [7], “inactive; negative”. Further, the mutagenic call under setting [8] is “inactive; negative”; the mutagenic call under setting [9] was “inactive; negative”; the mutagenic call under setting [10] was “inactive; negative”; the mutagenic call under setting [11] was “inactive; negative”; the mutagenic call under setting [12] was “inactive; negative”; the mutagenic call under setting [13] is “inactive; negative”.

For the compound `CC(N)CN` (stereo not drawn), the mutagenic call under setting [4] was “inactive; negative”; the mutagenic call under setting [1] was “inactive; negative”; the mutagenic call under setting [5] was “inactive; negative”; the mutagenic call under setting [6] is “inactive; negative”; the mutagenic call under setting [2] was “inactive; negative”; the mutagenic call under setting [7] is “inactive; negative”. Also, the mutagenic call is “inactive; negative” under setting [8]; “inactive; negative” under setting [9]; “inactive; negative” under setting [10]; “inactive; negative” under setting [11]; “inactive; negative” under setting [12]; “inactive; negative” under setting [13].
